Values of other authors, collected in US20050267197A1 (priority 2004, published 2005).

Legend:
[1] = in vivo
[2] = in vivo; remark: listed apart in the source

Structure (SMILES): COCc1c(C(C)C)nc(C(C)C)c(/C=C/[C@@H](O)C[C@@H](O)CC(=O)O)c1-c1ccc(F)cc1 [Baycol®, cervastatin]
- deaths linked to the drug (at recommended initial dose (0.4 mg/day) as well as highest dose (0.8 mg/day)): 31 deaths

Structure (SMILES): CC(C)c1nc(N(C)S(C)(=O)=O)nc(-c2ccc(F)cc2)c1/C=C/[C@@H](O)C[C@@H](O)CC(=O)O [Crestor®, rosuvastatin]
- cases of serious side effects cited (cited by consumer advocacy group, March 2004): 16 cases

Structure (SMILES): O=C(O)c1cccnc1 [Niacin]
- patients affected by flushing (redness) of the face and neck [1]: more than three quarters of patients
- patients discontinuing treatment because of adverse effects [1]: more than 40%
- increase of blood levels of HDL cholesterol [2]: up to 35%
- reduction of total cholesterol [2]: up to 15%
- reduction of triglyceride levels [2]: up to 30%
